# Earlier results as cited in publication PMC2796340 (Journal of the American Chemical Society, 2009).
# Molecular target: T1, Gal80 (Saccharomyces cerevisiae, UniProt P04387)
# T1 sequence (P04387 1-435): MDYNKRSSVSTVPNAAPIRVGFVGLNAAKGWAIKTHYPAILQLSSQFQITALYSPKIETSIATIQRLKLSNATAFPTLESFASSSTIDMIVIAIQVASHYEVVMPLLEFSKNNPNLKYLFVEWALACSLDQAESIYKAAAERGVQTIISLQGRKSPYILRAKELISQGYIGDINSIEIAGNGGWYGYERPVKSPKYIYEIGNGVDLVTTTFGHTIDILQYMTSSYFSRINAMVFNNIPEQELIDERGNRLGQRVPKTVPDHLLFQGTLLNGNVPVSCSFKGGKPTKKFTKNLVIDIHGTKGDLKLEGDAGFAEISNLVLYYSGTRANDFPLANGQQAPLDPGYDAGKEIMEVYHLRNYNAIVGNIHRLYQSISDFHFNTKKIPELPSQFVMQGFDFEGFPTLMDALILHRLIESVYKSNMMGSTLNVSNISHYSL
# Conditions: synthetic Gal4 activation domain peptide; ref [20]
sequence,measurement,value
MDQTAYNAFGITTGMFNTTTMD DVYNYLFDDEDT [Gal4 AD],binding to the Gal80 repressor site,binds the Gal80 repressor site with high affinity
